According to ChEMBL document CHEMBL5360530, “Structure activity relationship (SAR) and anticancer activity of pyrrolidine derivatives: Recent developments and future prospects (A review)” (Eur J Med Chem, 2023):

Assays:
[1] = test system: M-HeLa; experiment: Anticancer activity against human HelaM cells assessed as cell growth inhibition measured after 24 hrs by DAPI and propidium iodide staining based assay; format: functional
[2] = Cytotoxicity against human Chang liver cells assessed as cell growth inhibition measured after 24 hrs by DAPI and propidium iodide staining based assay; format: toxicity
[3] = test system: HCT-116; experiment: Anticancer activity against human HCT-116 cells assessed as cell growth inhibition measured after 48 hrs by MTT assay; format: functional, cell-based; conditions: HCT-116, 48 h
[4] = test system: MCF7; experiment: Anticancer activity against human MCF7 cells assessed as cell growth inhibition measured after 48 hrs by MTT assay; format: functional, cell-based; conditions: MCF7, 48 h
[5] = test system: HepG2; experiment: Anticancer activity against human HepG2 cells assessed as cell growth inhibition measured after 48 hrs by MTT assay; format: functional, cell-based; conditions: HepG2, 48 h
[6] = test system: PC-3; experiment: Anticancer activity against human PC-3 cells assessed as cell growth inhibition measured after 48 hrs by MTT assay; format: functional, cell-based; conditions: PC-3, 48 h
[7] = test system: A-431; experiment: Anticancer activity against human A-431 cells assessed as cell growth inhibition at 100 uM by MTT assay relative to control; format: functional
[8] = test system: HepG2; experiment: Anticancer activity against human HepG2 cells assessed as cell growth inhibition at 100 uM by MTT assay relative to control; format: functional
[9] = test system: MCF7; experiment: Anticancer activity against human MCF7 cells assessed as cell growth inhibition at 100 uM by MTT assay relative to control; format: functional

Row | Structure (SMILES) | IC50 [1] [µM] | IC50 at 24 h [2] [µM] | also measured
1 | Cc1cc(O)c(CCN(C)C)c(=O)o1 | ≥ 14.7 | > 100 | –
2 | Oc1cc2c(cc1-c1ccc(F)cc1)OCO2 | 14.7 | > 100 | –
3 | O=C(/C=C/c1ccco1)[C@H]1[C@H](c2ccco2)C2CSCN2C12C(=O)Nc1c(Br)cc(Br)cc12 (some centres not stated) | – | – | IC50 [3]: 1.57 mg/L; IC50 [4]: 2.5 mg/L; IC50 [5]: ≥ 0.8 µM
4 | Cc1cc(O)c(-c2ccc(Br)cc2)c(=O)o1 | ≥ 14.7 | > 100 | –
5 | O=c1oc2ccccc2c(O)c1-c1ccc(F)cc1 | ≥ 14.7 | > 100 | –
6 | Cc1ccc(/C=C/C(=O)[C@H]2[C@H](c3ccc(C)cc3)C3CSCN3C23C(=O)Nc2c(Br)cc(Br)cc23)cc1 (some centres not stated) | – | – | IC50 [3]: 1.57 mg/L; IC50 [4]: 2.5 mg/L; IC50 [5]: ≥ 0.8 µM
7 | O=C(/C=C/c1cccc([N+](=O)[O-])c1)[C@H]1[C@H](c2cccc([N+](=O)[O-])c2)C2CSCN2C12C(=O)Nc1c(Br)cc(Br)cc12 (some centres not stated) | – | – | IC50 [3]: 2.8 µM; IC50 [4]: 4 µM; IC50 [5]: 5 µM
8 | Cc1cc(O)c(C2CCCCC2)c(=O)o1 | ≥ 14.7 | > 100 | –
9 | CCCCCCc1cc2c(cc1O)OCO2 | 14.7 | > 100 | –
10 | O=[N+]([O-])c1c(Cl)cc2c(no[n+]2[O-])c1Nc1ccc(-c2ccc(F)cc2)c(O)c1 | ≥ 14.7 | > 100 | –
11 | O=[N+]([O-])c1c(Cl)cc2c(no[n+]2[O-])c1Nc1cccc(O)c1 | ≥ 14.7 | > 100 | –
12 | Cc1cc(O)c(-c2ccccc2)c(=O)o1 | ≥ 14.7 | > 100 | –
13 | CN(C)CCc1cc2c(cc1O)OCO2 | 14.7 | > 100 | –
14 | COc1ccc(-c2cc3c(cc2O)OCO3)cc1 | 14.7 | > 100 | –
15 | CCCCCCc1ccc(Nc2c([N+](=O)[O-])c(Cl)cc3c2no[n+]3[O-])cc1O | ≥ 14.7 | > 100 | –
16 | COc1ccc(-c2c(O)cc(C)oc2=O)cc1 | ≥ 14.7 | > 100 | –
17 | Oc1cc2c(cc1-c1ccc(Br)cc1)OCO2 | 14.7 | > 100 | –
18 | O=C(/C=C/c1ccc(Cl)cc1)[C@H]1[C@H](c2ccc(Cl)cc2)C2CSCN2C12C(=O)Nc1c(Br)cc(Br)cc12 (some centres not stated) | – | – | IC50 [3]: < 3 µM

Row | Structure (SMILES) | IC50 [1] [µM] | IC50 at 24 h [2] [µM] | also measured
19 | CN(C)CCc1c(O)c2ccccc2oc1=O | ≥ 14.7 | > 100 | –
20 | Cc1cc(O)c(-c2ccc(F)cc2)c(=O)o1 | ≥ 14.7 | > 100 | –
21 | O=[N+]([O-])c1c(Cl)cc2c(no[n+]2[O-])c1Nc1ccc(C2CCCCC2)c(O)c1 | ≥ 14.7 | > 100 | –
22 | CN(C)CCc1ccc(Nc2c([N+](=O)[O-])c(Cl)cc3c2no[n+]3[O-])cc1O | ≥ 14.7 | > 100 | –
23 | O=c1oc2ccccc2c(O)c1C1CCCCC1 | ≥ 14.7 | > 100 | –
24 | O=[N+]([O-])c1c(Cl)cc2c(no[n+]2[O-])c1Nc1ccc(-c2ccccc2)c(O)c1 | ≥ 14.7 | > 100 | –
25 | O=c1oc2ccccc2c(O)c1-c1ccc(Br)cc1 | ≥ 14.7 | > 100 | –
26 | COc1ccc(-c2ccc(Nc3c([N+](=O)[O-])c(Cl)cc4c3no[n+]4[O-])cc2O)cc1 | ≥ 14.7 | > 100 | –
27 | O=C(/C=C/c1ccc(C(F)(F)F)cc1)[C@H]1[C@H](c2ccc(C(F)(F)F)cc2)[C@H]2CSCN2[C@]12C(=O)Nc1ccccc12 | – | – | IC50 [5]: ≥ 1.5 µM; IC50 [6]: 1 µM
28 | O=C(/C=C/c1cccc(Br)c1)[C@H]1[C@H](c2cccc(Br)c2)C2CSCN2C12C(=O)Nc1c(Br)cc(Br)cc12 (some centres not stated) | – | – | IC50 [3]: < 3 µM
29 | O=C(/C=C/c1ccc(F)cc1)[C@H]1[C@H](c2ccc(F)cc2)[C@H]2CSCN2[C@]12C(=O)Nc1ccc(Br)cc12 | – | – | IC50 [5]: 0.8 µM; IC50 [6]: ≥ 0.8 µM
30 | O=C(/C=C/c1ccc(F)cc1)[C@H]1[C@H](c2ccc(F)cc2)C2CSCN2C12C(=O)Nc1c(Br)cc(Br)cc12 (some centres not stated) | – | – | IC50 [3]: 1.57 mg/L; IC50 [4]: 2.5 mg/L; IC50 [5]: ≥ 0.8 µM
31 | Cc1cc(O)cc(=O)o1 | ≥ 14.7 | > 100 | –
32 | O=c1oc2ccccc2c(O)c1-c1ccccc1 | ≥ 14.7 | > 100 | –
33 | Cc1ccc(S(=O)(=O)N2CCCC2C(=O)Nc2ccc3c(C)cc(=O)oc3c2)cc1 (single isomer, unassigned) | – | – | IC50 [4]: 1.07 µM
34 | O=c1cc(O)c2ccccc2o1 [4-HYDROXYCOUMARINS] | ≥ 14.7 | > 100 | –
35 | CCCCCCCCCCCCCCCCOP(=O)([O-])OCC[N+](C)(C)C [MILTEFOSINE] | – | – | inhibition at 100 µM [7]: 35.4%; inhibition at 100 µM [8]: 31.3%; inhibition at 100 µM [9]: 69.4%
